The supplement of paper PMC11451515

Test system: SEM cells
Assay: cell viability relative to DMSO control; higher = less cytotoxic
Conditions: 48 h
Outline: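 In 1536-well plates, 5 μl of leukemia cells were seeded per well: 500 cells/well for NOMO1 or SEM and 1000 cells/well for P12-Ichikawa. Each line had first been adapted for at least four passages in each medium. Library compounds in DMSO were pin-dosed at 11 threefold concentrations between 47 μM and 0.79 nM, and CellTiter-Glo One luminescence was read after 48 h at 37°C. Viability is a per-plate percentage relative to DMSO wells, with cell-free wells as background.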

[1] = HPLM + 10% dialyzed FBS, 0.000781 µM
[2] = HPLM + 10% dialyzed FBS, 0.00234 µM
[3] = HPLM + 10% dialyzed FBS, 0.00702 µM
[4] = HPLM + 10% dialyzed FBS, 0.0211 µM
[5] = HPLM + 10% dialyzed FBS, 0.0632 µM
[6] = HPLM + 10% dialyzed FBS, 0.19 µM
[7] = HPLM + 10% dialyzed FBS, 0.569 µM
[8] = HPLM + 10% dialyzed FBS, 1.71 µM
[9] = HPLM + 10% dialyzed FBS, 5.12 µM
[10] = HPLM + 10% dialyzed FBS, 15.4 µM
[11] = HPLM + 10% dialyzed FBS, 46.1 µM
[12] = RPMI 5 mM glucose + 10% FBS, 0.000781 µM
[13] = RPMI 5 mM glucose + 10% FBS, 0.00234 µM
[14] = RPMI 5 mM glucose + 10% FBS, 0.00702 µM
[15] = RPMI 5 mM glucose + 10% FBS, 0.0211 µM
[16] = RPMI 5 mM glucose + 10% FBS, 0.0632 µM
[17] = RPMI 5 mM glucose + 10% FBS, 0.19 µM
[18] = RPMI 5 mM glucose + 10% FBS, 0.569 µM
[19] = RPMI 5 mM glucose + 10% FBS, 1.71 µM
[20] = RPMI 5 mM glucose + 10% FBS, 5.12 µM
[21] = RPMI 5 mM glucose + 10% FBS, 15.4 µM
[22] = RPMI 5 mM glucose + 10% FBS, 46.1 µM
[23] = RPMI 5 mM glucose + 10% dialyzed FBS, 0.000781 µM
[24] = RPMI 5 mM glucose + 10% dialyzed FBS, 0.00234 µM
[25] = RPMI 5 mM glucose + 10% dialyzed FBS, 0.00702 µM
[26] = RPMI 5 mM glucose + 10% dialyzed FBS, 0.0211 µM
[27] = RPMI 5 mM glucose + 10% dialyzed FBS, 0.0632 µM
[28] = RPMI 5 mM glucose + 10% dialyzed FBS, 0.19 µM
[29] = RPMI 5 mM glucose + 10% dialyzed FBS, 0.569 µM
[30] = RPMI 5 mM glucose + 10% dialyzed FBS, 1.71 µM
[31] = RPMI 5 mM glucose + 10% dialyzed FBS, 5.12 µM
[32] = RPMI 5 mM glucose + 10% dialyzed FBS, 15.4 µM
[33] = RPMI 5 mM glucose + 10% dialyzed FBS, 46.1 µM

Work on `CN1C(=O)/C(=C(NC2=CC=C(I)C=C2F)\C3=C1\N=C/N(C[C@@H](O)CO)C3=O)F` yielded a cell viability [1] of 77.3%, a cell viability [2] of 76.4% and a cell viability [3] of 92.5%. It also gave a cell viability [4] of 90.9%, a cell viability [5] of 89.6% and a cell viability [6] of 79.6%. It also gave a cell viability [7] of 70.6%, a cell viability [8] of 59.6% and a cell viability [9] of 65.6%. It also gave a cell viability [10] of 18.6%, a cell viability [11] of 51.3% and a cell viability [12] of 79.2%. It also gave a cell viability [13] of 98.6%, a cell viability [14] of 107% and a cell viability [15] of 91.8%. For the same compound, the cell viability [16] was 74.6%, the cell viability [17] was 73.2% and the cell viability [18] was 53.9%. The cell viability [19] was 60.2%, the cell viability [20] was 68.5% and the cell viability [21] was 12.8%. It also gave a cell viability [22] of 30.6%, a cell viability [23] of 77.5% and a cell viability [24] of 71.3%. It also gave a cell viability [25] of 90.8%, a cell viability [26] of 93.2% and a cell viability [27] of 69.6%. For the same compound, the cell viability [28] was 64.2%, the cell viability [29] was 54.8% and the cell viability [30] was 54.8%. It also gave a cell viability [31] of 53%, a cell viability [32] of 14.2% and a cell viability [33] of 28%.
Compound `CN(C)CCCC1(c2ccc(F)cc2)OCc2cc(C#N)ccc21` (stereo unspecified) has a cell viability [1] of 94.8%, a cell viability [2] of 101% and a cell viability [3] of 103%. It also gave a cell viability [4] of 106%, a cell viability [5] of 100% and a cell viability [6] of 94.5%. It also gave a cell viability [7] of 91.7%, a cell viability [8] of 96.7% and a cell viability [9] of 83.6%. For the same compound, the cell viability [10] was 86.9%, the cell viability [11] was 73.6% and the cell viability [12] was 91.5%. The cell viability [13] was 99.4%, the cell viability [14] was 89.4% and the cell viability [15] was 99.1%. It also gave a cell viability [16] of 86.5%, a cell viability [17] of 96.6% and a cell viability [18] of 82.4%. For the same compound, the cell viability [19] was 93.1%, the cell viability [20] was 74.2% and the cell viability [21] was 90.2%. For the same compound, the cell viability [22] was 78.1%, the cell viability [23] was 109% and the cell viability [24] was 109%. The cell viability [25] was 106%, the cell viability [26] was 108% and the cell viability [27] was 113%. For the same compound, the cell viability [28] was 120%, the cell viability [29] was 84.1% and the cell viability [30] was 105%. For the same compound, the cell viability [31] was 70.7%, the cell viability [32] was 92.2% and the cell viability [33] was 76%.
`CO[C@H]1/C=C/O[C@@]2(C)Oc3c(C)c(O)c4c(c3C2=O)C2=NC3(CCN(CC(C)C)CC3)NC2=C(NC(=O)/C(C)=C/C=C/[C@H](C)[C@H](O)[C@@H](C)[C@@H](O)[C@@H](C)[C@H](OC(C)=O)[C@@H]1C)C4=O` gave a cell viability [1] of 92.6%, a cell viability [2] of 80.4% and a cell viability [3] of 103%. The cell viability [4] was 109%, the cell viability [5] was 122% and the cell viability [6] was 118%. For the same compound, the cell viability [7] was 123%, the cell viability [8] was 17.8% and the cell viability [9] was 122%. The cell viability [10] was 108%, the cell viability [11] was 105% and the cell viability [12] was 116%. The cell viability [13] was 114%, the cell viability [14] was 133% and the cell viability [15] was 133%. The cell viability [16] was 153%, the cell viability [17] was 144% and the cell viability [18] was 135%. It also gave a cell viability [19] of 10.7%, a cell viability [20] of 152% and a cell viability [21] of 125%. It also gave a cell viability [22] of 113%, a cell viability [23] of 110% and a cell viability [24] of 100%. It also gave a cell viability [25] of 118%, a cell viability [26] of 117% and a cell viability [27] of 135%. The cell viability [28] was 122%, the cell viability [29] was 130% and the cell viability [30] was 26.7%. The cell viability [31] was 123%, the cell viability [32] was 93% and the cell viability [33] was 99.1%.
`Oc1ccc(OCc2ccccc2)cc1` gave a cell viability [1] of 89.8%, a cell viability [2] of 106% and a cell viability [3] of 98.9%. For the same compound, the cell viability [4] was 113%, the cell viability [5] was 20.8% and the cell viability [6] was 103%. The cell viability [7] was 106%, the cell viability [8] was 97.1% and the cell viability [9] was 92.5%. The cell viability [10] was 47.7%, the cell viability [11] was 28.7% and the cell viability [12] was 103%. The cell viability [13] was 106%, the cell viability [14] was 108% and the cell viability [15] was 110%. It also gave a cell viability [16] of 13.6%, a cell viability [17] of 113% and a cell viability [18] of 114%. For the same compound, the cell viability [19] was 104%, the cell viability [20] was 77.6% and the cell viability [21] was 58.3%. The cell viability [22] was 31.6%, the cell viability [23] was 112% and the cell viability [24] was 114%. For the same compound, the cell viability [25] was 130%, the cell viability [26] was 119% and the cell viability [27] was 47.4%. It also gave a cell viability [28] of 109%, a cell viability [29] of 126% and a cell viability [30] of 109%. It also gave a cell viability [31] of 98.9%, a cell viability [32] of 69.2% and a cell viability [33] of 30.3%.
In the case of `CCC(C)CCCCC(=O)N[C@@H](CCN)C(=O)NC(C(=O)N[C@H](CCN)C(=O)N[C@@H]1CCNC(=O)C([C@@H](C)O)NC(=O)[C@@H](CCN)NC(=O)[C@@H](CCN)NC(=O)[C@@H](CC(C)C)NC(=O)[C@H](Cc2ccccc2)NC(=O)[C@H](CCN)NC1=O)[C@@H](C)O` (stereo partly specified), the cell viability [1] is reported as 81.6%, the cell viability [2] is reported as 85.8% and the cell viability [3] is reported as 94%. It also gave a cell viability [4] of 94.3%, a cell viability [5] of 100% and a cell viability [6] of 92.9%. It also gave a cell viability [7] of 76.5%, a cell viability [8] of 112% and a cell viability [9] of 109%. The cell viability [10] was 110%, the cell viability [11] was 101% and the cell viability [12] was 104%. The cell viability [13] was 113%, the cell viability [14] was 109% and the cell viability [15] was 109%. The cell viability [16] was 107%, the cell viability [17] was 110% and the cell viability [18] was 90.1%. It also gave a cell viability [19] of 108%, a cell viability [20] of 111% and a cell viability [21] of 118%. It also gave a cell viability [22] of 108%, a cell viability [23] of 87.1% and a cell viability [24] of 90.9%. For the same compound, the cell viability [25] was 93.2%, the cell viability [26] was 86.1% and the cell viability [27] was 107%. For the same compound, the cell viability [28] was 111%, the cell viability [29] was 49.8% and the cell viability [30] was 103%. For the same compound, the cell viability [31] was 105%, the cell viability [32] was 102% and the cell viability [33] was 118%.
In the case of `Nc1ccc(C(=O)c2cc3c(ccc4ccccc43)[nH]2)cc1`, the cell viability [12] is reported as 118%, the cell viability [13] is reported as 137% and the cell viability [14] is reported as 124%. It also gave a cell viability [15] of 130%, a cell viability [16] of 129% and a cell viability [17] of 102%. It also gave a cell viability [18] of 109%, a cell viability [19] of 110% and a cell viability [20] of 32.1%. It also gave a cell viability [21] of 15.9%, a cell viability [22] of 8.45% and a cell viability [23] of 121%. The cell viability [24] was 130%, the cell viability [25] was 117% and the cell viability [26] was 126%. It also gave a cell viability [27] of 138%, a cell viability [28] of 104% and a cell viability [29] of 100%. It also gave a cell viability [30] of 95%, a cell viability [31] of 27.9% and a cell viability [32] of 12.1%. It also gave a cell viability [33] of 11.3%.
For `CC(C)(N)C(=O)N[C@H](COCc1ccccc1)C(=O)N1CCC2(CC1)CN([S+](C)(=O)[O-])c1ccccc12`, the cell viability [12] was 124%, the cell viability [13] was 127% and the cell viability [14] was 122%. It also gave a cell viability [15] of 155%, a cell viability [16] of 130% and a cell viability [17] of 130%. It also gave a cell viability [18] of 139%, a cell viability [19] of 121% and a cell viability [20] of 114%. For the same compound, the cell viability [21] was 91.9% and the cell viability [22] was 36.8%.
`CNC(=O)c1ccc2c(c1)NC(=O)/C2=C(\Nc1cccc(CN(C)C)c1)c1ccccc1` was tested, and the cell viability [1] was 74.4%, the cell viability [2] was 93.6% and the cell viability [3] was 98.8%. The cell viability [4] was 109%, the cell viability [5] was 85.3% and the cell viability [6] was 89.9%. The cell viability [7] was 78.1%, the cell viability [8] was 57.7% and the cell viability [9] was 4.44%. It also gave a cell viability [10] of 23.4%, a cell viability [11] of 1.26% and a cell viability [12] of 97%. It also gave a cell viability [13] of 94.9%, a cell viability [14] of 97.3% and a cell viability [15] of 106%. The cell viability [16] was 93.5%, the cell viability [17] was 89.7% and the cell viability [18] was 94.5%. The cell viability [19] was 4.33%, the cell viability [20] was 3.4% and the cell viability [21] was 1.5%. The cell viability [22] was 1.29%, the cell viability [23] was 78.4% and the cell viability [24] was 92.3%. For the same compound, the cell viability [25] was 97.5%, the cell viability [26] was 92.1% and the cell viability [27] was 87.2%. It also gave a cell viability [28] of 108%, a cell viability [29] of 81.4% and a cell viability [30] of 35.4%. For the same compound, the cell viability [31] was 3.62%, the cell viability [32] was 1.76% and the cell viability [33] was 1.28%.
